Source: ChEMBL document CHEMBL4507326, “Data for DCP probe TP-030-2” (2021)
pIC50: −log10 of the molar value.

Legend:
Mus musculus = organism: Mus musculus; test: Inhibition of Phorbol Ester at 10 µM in the Eurofins-Panlabs radioligand binding assay (Eurofins_assay_264500); set-up: ligand concentration 3 nM; details: Compound concentration 10.0 uM
[1] = target: Tyrosine-protein kinase JAK3 (Homo sapiens, UniProt P52333); test: JAK3(JAK3LGRG) Takeda global kinase panel
[2] = target: ALK tyrosine kinase receptor (Homo sapiens, UniProt Q9UM73); test: ALK(ALK1LGY1) Takeda global kinase panel
[3] = target: Mitogen-activated protein kinase kinase kinase kinase 5 (Homo sapiens, UniProt Q9Y4K4); test: KHS1(M4K5LGY1) Takeda global kinase panel
[4] = target: Receptor-type tyrosine-protein kinase FLT3 (Homo sapiens, UniProt P36888); test: FLT3(FLT3MGE1) Takeda global kinase panel
[5] = target: Substance-P receptor (Homo sapiens) (UniProt P25103); test: Inhibition of Tachykinin NK1 at 10 µM in the Eurofins-Panlabs radioligand binding assay (Eurofins_assay_255520); set-up: ligand concentration 0.8 nM; details: Compound concentration 10.0 uM
[6] = target: Rho-associated protein kinase 1 (Homo sapiens, UniProt Q13464); test: ROCK1(ROC1LGY1) Takeda global kinase panel
[7] = target: Activin receptor type-1-like (Homo sapiens, UniProt P37023); test: ALK1(ACL1LGF1) Takeda global kinase panel
[8] = target: Serine/threonine-protein kinase Nek5 (Homo sapiens, UniProt Q6P3R8); test: Nek5(NEK5LGRD) Takeda global kinase panel
Ephrin type-A receptor 6 = Ephrin type-A receptor 6 (Homo sapiens, UniProt Q9UF33); test: EphA6(EPA6LGI5) Takeda global kinase panel
[9] = target: 5'-AMP-activated protein kinase catalytic subunit alpha-2 (Homo sapiens, UniProt P54646); test: AMPKalpha2(PRA2LGY1) Takeda global kinase panel
[10] = target: Muscarinic acetylcholine receptor M1 (Homo sapiens) (UniProt P11229); details: Compound concentration 10.0 uM
[11] = target: D(1A) dopamine receptor (Homo sapiens) (UniProt P21728); details: Compound concentration 10.0 uM
[12] = target: Delta-type opioid receptor (Homo sapiens) (UniProt P41143); details: Compound concentration 10.0 uM
[13] = target: Cyclin-dependent kinase 4 (Homo sapiens, UniProt P11802); test: CDK4(CDK4CGS1) Takeda global kinase panel
[14] = target: NT-3 growth factor receptor (Homo sapiens, UniProt Q16288); test: TRKC(NTR3LGN1) Takeda global kinase panel
Ephrin type-A receptor 1 = Ephrin type-A receptor 1 (Homo sapiens, UniProt P21709); test: EphA1(EPA1LGY1) Takeda global kinase panel
[15] = target: 5-hydroxytryptamine receptor 1A (Homo sapiens) (UniProt P08908); details: Compound concentration 10.0 uM
[16] = target: Dual specificity tyrosine-phosphorylation-regulated kinase 4 (Homo sapiens, UniProt Q9NR20); test: DYRK4(DYR4LHY1) Takeda global kinase panel
[17] = target: MAP kinase-activated protein kinase 2 (Homo sapiens, UniProt P49137); test: MAPKAPK2(MPK2LGRH) Takeda global kinase panel
[18] = target: Histamine H1 receptor (Homo sapiens) (UniProt P35367); details: Compound concentration 10.0 uM
[19] = target: cAMP-dependent protein kinase catalytic subunit alpha (Homo sapiens, UniProt P17612); test: PKAalpha(PRCALGH1) Takeda global kinase panel
[20] = target: Mitogen-activated protein kinase kinase kinase 13 (Homo sapiens, UniProt O43283); test: LZK(M313LGRJ) Takeda global kinase panel
[21] = target: Casein kinase II subunit alpha (Homo sapiens, UniProt P68400); test: CK2alpha1(C2A1LGF1) Takeda global kinase panel
[22] = target: Alpha-2A adrenergic receptor (Homo sapiens) (UniProt P08913); details: Compound concentration 10.0 uM
[23] = target: GABA-A receptor; anion channel (Rattus norvegicus) (UniProt O09028+P15431+P18506+P18508+P19969+P20236+P23574+P23576+P28471+P28473+P30191+P62813+P63079+P63138+Q91ZM7+Q9ES14); details: Compound concentration 10.0 uM
[24] = target: Muscarinic acetylcholine receptor M2 (Homo sapiens) (UniProt P08172); details: Compound concentration 10.0 uM
[25] = target: Casein kinase I isoform gamma-1 (Homo sapiens, UniProt Q9HCP0); test: CK1gamma1(C1G1LGI1) Takeda global kinase panel
[26] = target: Glycogen synthase kinase-3 beta (Homo sapiens, UniProt P49841); test: GSK3beta(GS3BLGM1) Takeda global kinase panel
TGF-beta receptor type-2 = TGF-beta receptor type-2 (Homo sapiens, UniProt P37173); test: TGFbetaR2(TGF2LGY1) Takeda global kinase panel
[27] = target: D(1A) dopamine receptor (Homo sapiens) (UniProt P21728); details: Compound concentration 10.0 uM; remark: listed apart in the source
[28] = target: 5-hydroxytryptamine receptor 1D (Homo sapiens) (UniProt P28221); details: Compound concentration 10.0 uM
[29] = target: Serine/threonine-protein kinase MARK2 (Homo sapiens, UniProt Q7KZI7); test: MARK2(MAR2LGY1) Takeda global kinase panel
[30] = target: Serine/threonine-protein kinase Nek9 (Homo sapiens, UniProt Q8TD19); test: Nek9(NEK9LGF1) Takeda global kinase panel
[31] = target: 5-hydroxytryptamine receptor 2B (Homo sapiens) (UniProt P41595); details: Compound concentration 10.0 uM
[32] = target: Protein kinase C iota type (Homo sapiens, UniProt P41743); test: PKCiota(PRKILGRD) Takeda global kinase panel
[33] = target: Protein kinase C zeta type (Homo sapiens, UniProt Q05513); test: PKCzeta(PRKZLGP1) Takeda global kinase panel
[34] = target: Interleukin-1 receptor-associated kinase 3 (Homo sapiens, UniProt Q9Y616); test: IRAK3(IRK3PFE1) Takeda global kinase panel
[35] = target: Serine/threonine-protein kinase MARK1 (Homo sapiens, UniProt Q9P0L2); test: MARK1(MAR1PHY1) Takeda global kinase panel
[36] = target: Microtubule-associated serine/threonine-protein kinase 4 (Homo sapiens, UniProt O15021); test: MAST4(MAS4LGRD) Takeda global kinase panel
[37] = target: Beta-2 adrenergic receptor (Homo sapiens) (UniProt P07550); details: Compound concentration 10.0 uM
[38] = target: cAMP-dependent protein kinase catalytic subunit beta (Homo sapiens, UniProt P22694); test: PKAbeta(PRCBLGF1) Takeda global kinase panel
[39] = target: 5-hydroxytryptamine receptor 6 (Homo sapiens) (UniProt P50406); details: Compound concentration 10.0 uM
[40] = target: Epidermal growth factor receptor (Homo sapiens, UniProt P00533); test: Inhibition of Epidermal Growth Factor (EGF) at 10 µM in the Eurofins-Panlabs radioligand binding assay (Eurofins_assay_225510); details: Compound concentration 10.0 uM

Sequence of D(1A) dopamine receptor (Homo sapiens) (P21728 whole entry): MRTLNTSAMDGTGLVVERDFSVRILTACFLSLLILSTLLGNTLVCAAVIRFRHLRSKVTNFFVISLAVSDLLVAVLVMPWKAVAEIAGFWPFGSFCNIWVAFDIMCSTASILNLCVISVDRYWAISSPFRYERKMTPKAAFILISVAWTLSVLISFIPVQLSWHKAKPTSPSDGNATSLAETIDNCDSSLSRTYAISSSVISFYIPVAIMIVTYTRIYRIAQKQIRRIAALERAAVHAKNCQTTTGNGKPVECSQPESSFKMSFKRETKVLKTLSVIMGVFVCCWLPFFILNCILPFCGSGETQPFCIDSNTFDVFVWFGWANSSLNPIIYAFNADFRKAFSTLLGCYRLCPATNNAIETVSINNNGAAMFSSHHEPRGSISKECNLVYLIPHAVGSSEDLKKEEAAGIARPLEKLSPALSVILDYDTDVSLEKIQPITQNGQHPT
Sequence of Serine/threonine-protein kinase MARK2 (Q7KZI7 whole entry): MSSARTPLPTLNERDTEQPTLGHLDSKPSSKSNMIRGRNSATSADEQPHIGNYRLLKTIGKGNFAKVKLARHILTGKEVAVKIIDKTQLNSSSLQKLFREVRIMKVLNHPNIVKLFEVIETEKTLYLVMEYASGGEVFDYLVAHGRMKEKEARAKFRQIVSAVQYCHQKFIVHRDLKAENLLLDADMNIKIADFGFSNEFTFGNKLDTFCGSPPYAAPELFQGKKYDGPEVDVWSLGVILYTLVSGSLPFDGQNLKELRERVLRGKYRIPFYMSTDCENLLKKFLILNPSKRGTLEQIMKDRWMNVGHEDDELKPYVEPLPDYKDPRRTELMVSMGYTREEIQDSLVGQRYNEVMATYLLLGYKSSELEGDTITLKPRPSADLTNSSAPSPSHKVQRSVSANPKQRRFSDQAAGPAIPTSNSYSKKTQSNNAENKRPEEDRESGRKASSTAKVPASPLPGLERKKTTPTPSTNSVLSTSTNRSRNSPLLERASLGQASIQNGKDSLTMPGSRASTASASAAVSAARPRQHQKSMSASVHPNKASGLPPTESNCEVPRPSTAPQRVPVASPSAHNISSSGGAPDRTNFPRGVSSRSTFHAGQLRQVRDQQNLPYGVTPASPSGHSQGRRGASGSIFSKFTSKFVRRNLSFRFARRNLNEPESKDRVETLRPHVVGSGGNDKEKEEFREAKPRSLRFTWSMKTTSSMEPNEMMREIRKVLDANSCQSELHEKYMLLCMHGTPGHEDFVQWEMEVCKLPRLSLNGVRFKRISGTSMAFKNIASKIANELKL
Sequence of Beta-2 adrenergic receptor (Homo sapiens) (P07550 whole entry, looked up): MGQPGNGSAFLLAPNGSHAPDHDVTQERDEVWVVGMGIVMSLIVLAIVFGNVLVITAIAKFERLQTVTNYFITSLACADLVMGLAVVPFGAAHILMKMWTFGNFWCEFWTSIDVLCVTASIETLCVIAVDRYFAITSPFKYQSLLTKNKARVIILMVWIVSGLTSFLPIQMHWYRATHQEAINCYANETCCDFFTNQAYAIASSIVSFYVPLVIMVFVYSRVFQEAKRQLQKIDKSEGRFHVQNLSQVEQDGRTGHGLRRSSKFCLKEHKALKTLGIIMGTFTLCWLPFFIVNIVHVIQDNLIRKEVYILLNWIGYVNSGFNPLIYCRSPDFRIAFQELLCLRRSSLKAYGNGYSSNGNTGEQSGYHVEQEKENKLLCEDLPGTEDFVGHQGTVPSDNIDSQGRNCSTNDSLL
Sequence of ALK tyrosine kinase receptor (Q9UM73 whole entry): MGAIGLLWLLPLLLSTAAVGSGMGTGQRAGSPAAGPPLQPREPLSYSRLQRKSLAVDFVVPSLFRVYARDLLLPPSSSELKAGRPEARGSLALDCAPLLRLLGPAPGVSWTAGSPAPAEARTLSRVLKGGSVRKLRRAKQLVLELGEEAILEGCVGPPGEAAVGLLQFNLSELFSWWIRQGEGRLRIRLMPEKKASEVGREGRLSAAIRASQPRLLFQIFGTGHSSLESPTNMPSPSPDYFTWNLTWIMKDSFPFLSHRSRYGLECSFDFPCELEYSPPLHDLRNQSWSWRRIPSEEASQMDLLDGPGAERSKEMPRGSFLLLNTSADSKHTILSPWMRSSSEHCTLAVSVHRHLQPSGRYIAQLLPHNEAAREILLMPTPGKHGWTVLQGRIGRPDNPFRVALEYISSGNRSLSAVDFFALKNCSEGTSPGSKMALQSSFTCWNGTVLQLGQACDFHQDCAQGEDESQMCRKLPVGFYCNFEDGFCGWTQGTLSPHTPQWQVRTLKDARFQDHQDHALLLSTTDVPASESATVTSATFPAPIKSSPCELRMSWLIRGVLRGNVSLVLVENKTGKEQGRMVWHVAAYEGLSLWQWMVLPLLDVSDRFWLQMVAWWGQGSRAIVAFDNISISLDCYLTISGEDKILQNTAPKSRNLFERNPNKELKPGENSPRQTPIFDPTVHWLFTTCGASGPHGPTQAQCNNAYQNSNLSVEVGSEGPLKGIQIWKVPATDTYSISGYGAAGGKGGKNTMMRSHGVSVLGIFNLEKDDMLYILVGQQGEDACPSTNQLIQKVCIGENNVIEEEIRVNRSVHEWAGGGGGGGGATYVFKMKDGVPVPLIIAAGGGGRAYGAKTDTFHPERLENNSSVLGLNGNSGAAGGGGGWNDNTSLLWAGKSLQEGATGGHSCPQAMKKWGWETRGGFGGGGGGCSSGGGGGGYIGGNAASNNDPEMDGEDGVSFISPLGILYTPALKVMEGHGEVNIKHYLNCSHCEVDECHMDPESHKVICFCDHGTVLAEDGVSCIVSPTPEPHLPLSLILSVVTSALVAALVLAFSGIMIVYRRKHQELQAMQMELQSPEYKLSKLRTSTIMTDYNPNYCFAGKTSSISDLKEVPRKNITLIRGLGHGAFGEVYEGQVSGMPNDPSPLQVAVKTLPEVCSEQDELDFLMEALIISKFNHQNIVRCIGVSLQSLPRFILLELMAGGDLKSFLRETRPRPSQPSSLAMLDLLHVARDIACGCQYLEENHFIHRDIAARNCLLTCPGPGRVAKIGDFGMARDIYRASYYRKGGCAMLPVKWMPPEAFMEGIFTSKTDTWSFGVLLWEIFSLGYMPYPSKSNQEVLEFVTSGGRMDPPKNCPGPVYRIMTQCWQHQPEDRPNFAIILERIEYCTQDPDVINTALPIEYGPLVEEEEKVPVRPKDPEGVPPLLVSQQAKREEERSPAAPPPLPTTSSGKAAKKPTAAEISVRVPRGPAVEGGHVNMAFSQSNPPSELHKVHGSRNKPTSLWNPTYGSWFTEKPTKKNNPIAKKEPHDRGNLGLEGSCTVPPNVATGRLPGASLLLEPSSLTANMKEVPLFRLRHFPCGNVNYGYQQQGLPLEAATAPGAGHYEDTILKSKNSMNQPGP
Sequence of Muscarinic acetylcholine receptor M1 (Homo sapiens) (P11229 whole entry): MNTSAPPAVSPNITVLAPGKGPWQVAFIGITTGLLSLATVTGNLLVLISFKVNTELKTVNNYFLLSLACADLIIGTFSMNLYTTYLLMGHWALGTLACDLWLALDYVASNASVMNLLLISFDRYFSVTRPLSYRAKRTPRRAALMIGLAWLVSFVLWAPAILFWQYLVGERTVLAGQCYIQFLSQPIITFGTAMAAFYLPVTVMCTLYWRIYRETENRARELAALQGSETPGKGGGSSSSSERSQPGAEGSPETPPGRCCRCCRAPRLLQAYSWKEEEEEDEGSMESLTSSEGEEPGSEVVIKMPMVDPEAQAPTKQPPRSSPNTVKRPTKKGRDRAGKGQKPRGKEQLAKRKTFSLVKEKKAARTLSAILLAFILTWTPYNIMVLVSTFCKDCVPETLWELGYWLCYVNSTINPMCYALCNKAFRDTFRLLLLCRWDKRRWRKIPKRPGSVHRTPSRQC
Sequence of Activin receptor type-1-like (P37023 whole entry): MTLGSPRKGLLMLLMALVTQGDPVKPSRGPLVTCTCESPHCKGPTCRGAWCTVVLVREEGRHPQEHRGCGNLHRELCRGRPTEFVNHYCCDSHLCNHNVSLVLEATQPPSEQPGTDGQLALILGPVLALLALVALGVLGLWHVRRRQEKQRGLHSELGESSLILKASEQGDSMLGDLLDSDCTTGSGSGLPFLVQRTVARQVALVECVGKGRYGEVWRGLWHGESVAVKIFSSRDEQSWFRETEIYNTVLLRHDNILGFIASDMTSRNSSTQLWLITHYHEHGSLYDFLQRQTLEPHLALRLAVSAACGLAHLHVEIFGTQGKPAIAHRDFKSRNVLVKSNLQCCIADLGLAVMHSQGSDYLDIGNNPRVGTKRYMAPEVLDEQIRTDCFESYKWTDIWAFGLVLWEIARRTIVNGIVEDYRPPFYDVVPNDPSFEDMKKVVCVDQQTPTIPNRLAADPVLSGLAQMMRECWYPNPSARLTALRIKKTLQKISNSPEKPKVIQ
Sequence of Dual specificity tyrosine-phosphorylation-regulated kinase 4 (Q9NR20 whole entry): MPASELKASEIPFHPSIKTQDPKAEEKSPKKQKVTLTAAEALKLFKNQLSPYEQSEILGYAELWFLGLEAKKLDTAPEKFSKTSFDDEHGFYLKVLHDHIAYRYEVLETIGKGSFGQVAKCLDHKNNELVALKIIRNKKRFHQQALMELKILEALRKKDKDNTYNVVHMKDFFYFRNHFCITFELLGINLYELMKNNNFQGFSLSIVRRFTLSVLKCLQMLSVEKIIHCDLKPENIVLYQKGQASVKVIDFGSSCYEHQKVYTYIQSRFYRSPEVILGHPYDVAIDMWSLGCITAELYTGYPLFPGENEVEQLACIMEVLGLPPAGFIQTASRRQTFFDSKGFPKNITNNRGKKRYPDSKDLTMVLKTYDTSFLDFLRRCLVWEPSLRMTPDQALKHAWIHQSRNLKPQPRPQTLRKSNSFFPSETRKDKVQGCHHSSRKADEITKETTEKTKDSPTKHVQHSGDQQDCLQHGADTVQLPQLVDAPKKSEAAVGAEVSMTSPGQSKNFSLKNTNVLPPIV

Question: Which inhibition (Mus musculus) does the source give for CN1C(=O)[C@@H](N2CCc3c(nn(Cc4ccccc4)c3Br)C2=O)COc2ccccc21 [TP-030-2] here?
Answer: Its inhibition is 7%.

Question: And the pIC50 [1]?
Answer: Its pIC50 is 6.00.

Question: What about the pIC50 [2] of the same compound?
Answer: Its pIC50 is 6.00.

Question: And the pIC50 [3]?
Answer: The pIC50 was 6.00.

Question: What about the pIC50 [4] of the same compound?
Answer: The pIC50 was 6.00.

Question: What about the inhibition [5] of the same compound?
Answer: The inhibition was 17%.

Question: What about the pIC50 [6] of the same compound?
Answer: The pIC50 was 6.00.

Question: And the pIC50 [7]?
Answer: The pIC50 was 6.00.

Question: And the pIC50 [8]?
Answer: The pIC50 was 6.00.

Question: What about the pIC50 (Ephrin type-A receptor 6) of the same compound?
Answer: Its pIC50 is 6.00.

Question: And the pIC50 [9]?
Answer: The pIC50 was 6.00.

Question: And the inhibition [10]?
Answer: The inhibition was 21.6%.

Question: What about the inhibition [11] of the same compound?
Answer: The inhibition was 16.1%.

Question: And the inhibition [12]?
Answer: The inhibition was 30.1%.

Question: What about the pIC50 [13] of the same compound?
Answer: Its pIC50 is 6.00.

Question: What about the pIC50 [14] of the same compound?
Answer: Its pIC50 is 6.00.

Question: What about the pIC50 (Ephrin type-A receptor 1) of the same compound?
Answer: The pIC50 was 6.00.

Question: And the inhibition [15]?
Answer: The inhibition was 16.9%.

Question: What about the pIC50 [16] of the same compound?
Answer: The pIC50 was 6.00.

Question: And the pIC50 [17]?
Answer: Its pIC50 is 6.00.

Question: And the inhibition [18]?
Answer: Its inhibition is 9%.

Question: And the pIC50 [19]?
Answer: The pIC50 was 6.00.

Question: What about the pIC50 [20] of the same compound?
Answer: The pIC50 was 6.00.

Question: What about the pIC50 [21] of the same compound?
Answer: The pIC50 was 6.00.

Question: And the inhibition [22]?
Answer: Its inhibition is 43%.

Question: And the inhibition [23]?
Answer: The inhibition was 33.9%.

Question: What about the inhibition [24] of the same compound?
Answer: The inhibition was -4.12%.

Question: And the pIC50 [25]?
Answer: Its pIC50 is 6.00.

Question: And the pIC50 [26]?
Answer: Its pIC50 is 6.00.

Question: What about the pIC50 (TGF-beta receptor type-2) of the same compound?
Answer: The pIC50 was 6.00.

Question: And the inhibition [27]?
Answer: Its inhibition is 9%.

Question: And the inhibition [28]?
Answer: The inhibition was -5.06%.

Question: What about the pIC50 [29] of the same compound?
Answer: Its pIC50 is 6.00.

Question: And the pIC50 [30]?
Answer: The pIC50 was 6.00.

Question: What about the inhibition [31] of the same compound?
Answer: Its inhibition is 63%.

Question: What about the pIC50 [32] of the same compound?
Answer: The pIC50 was 6.00.

Question: What about the pIC50 [33] of the same compound?
Answer: The pIC50 was 6.00.

Question: What about the pIC50 [34] of the same compound?
Answer: Its pIC50 is 6.00.

Question: And the pIC50 [35]?
Answer: Its pIC50 is 6.00.

Question: What about the pIC50 [36] of the same compound?
Answer: Its pIC50 is 6.00.

Question: And the inhibition [37]?
Answer: The inhibition was 11.2%.

Question: What about the pIC50 [38] of the same compound?
Answer: The pIC50 was 6.00.

Question: And the inhibition [39]?
Answer: The inhibition was 8.15%.

Question: What about the inhibition [40] of the same compound?
Answer: The inhibition was 2%.
